Experimental data from patent publication US20150087723A1, “MICROBIAL COMPOSITION” (Rohm and Haas Company, priority 2011, published 2015).
Several values for one entry are separate records, joined by “and”; a condition that tells them apart may be missing. Identical values can stand only once.

Assays:
Assay type in all cases: cell-based
[1] = system: Staphylococcus aureus (10788 strain); test: Antimicrobial efficacy in water, 15 seconds contact, mean bacterial survival NMBS by colony count
[2] = system: Escherichia coli (10536 strain); test: as above
Experimental: An overnight culture of Escherichia coli (10536 strain) was prepared in 50 ml total volume of TSB broth, grown for ca. 18 hrs at 37° C. and shaken at 150 rpm. 1 ml of this overnight E. coli culture was transferred to 50 ml of fresh TSB broth and incubated at 37° C. at 150 rpm for ca. 4 hours. […] This bacterial stock was used for assaying against antimicrobial actives (in triplicate).
The following assay describes the testing of 8 materials using 6 dilutions across half of a 96-well micro litre plate (MTP). Using this approach it is possible to assay 16 actives (without replicates) with, one full dilution plate, replicating this set up in two halves of the plate columns, 1-6 and 7-12.
IM solutions of the test actives were prepared in dimethylsulphoxide (DMSO).
Aliquots (270 μl) of the materials at 1.11 times the final concentration were dispensed into the wells of the MTP along one column (A1-H1). This MTP was labeled as the “Screening plate”.
In another MTP, labeled as the “Dilution plate”, 270 μl of D/E neutralising solution from DIFCO Composition was added to column 1. The composition of the neutralising solution was as follows: pancreatic digest of casein, 5.0 g/L; Yeast Extract, 2.5 g/L; Dextrose, 10 g/L, sodium thioglycollate, 1.0 g/L, sodium thiosulphate, 6.0 g/L; sodium bisulphite, 2.5 g/L; Polysorbate 80, 5.0 g/L; lecithin 7.0 g/L; bromocresol purple, 0.02 g/L with a pH is the range 7.6±0.2.
270 μl of tryptone diluent solution was added to all the remaining wells of the Dilution MTP (columns 2-6).
Bacterial stock (30 μl) was then added to the prepared 270 μl of the solution of actives in the Screening Plate and mixed, using a multichannel pipette with 8 tips to aspirate and dispense the same volume of bacterial stock in parallel to 8 wells in rows A-H. After a contact time of 15 seconds, the mixtures were quenched by transferring 30 μl volumes of the mixtures into the 270 μl D/E neutralising solution in the prepared dilution plate, using aspiration to mix. After exactly 5 minutes in the D/E neutralising solution, 30 μl volumes were transferred from column 1 to column 2 of the Dilution MTP and mixed, before transferring further 30 μl volumes from column 2 into column 3. This process was repeated serially diluting the bacteria across the plate to column 6.
30 μl volumes from each well in the Dilution MTP were transferred onto pre-labeled segment of Tryptone Soya Agar (TSA) plates starting from the lowest bacterial concentration (highest dilution, column 6) to the highest bacterial concentration (column 1). The TSA plates were allowed to stand for ca. 2 hours so that the 30 μl inocula spots could dry and the plates were then inverted and incubated overnight at 37° C. before enumerating the bacterial colonies at the labeled dilutions to determine the effects of the actives on bacterial growth.
Mean bacterial survival numbers NMBS (expressed in Log CFU/ml) are obtained by first determining the segment of the TSA plate where the number of bacterial colonies is countable. From the colony number in this segment, NMBS is calculated by the formula: […]
Here, Ncol is the colony count, and DF is the dilution factor taken from the MTP-well corresponding to the TSA plate segment (i.e. DF may range from 1 for the quench, to 6 for the highest dilution).

[3] = system: Escherichia coli (E. coli—ATCC #10536); test: Synergy test: high resolution MBC microtiter plate assay, phosphate buffer containing 35% dipropylene glycol, 15 seconds contact; conditions: E. coli 10536; for SI (Synergy Index = Qa/QA + Qb/QB): at Qa and Qb, <1 synergy, 1 additivity, >1 antagonism; for Qb: MBC of the second component (B) acting alone (QB): component alone (Qa = 0)
Description: One measure of synergy is -the industrially accepted method described by Kull, F. C.; Eisman, P. C.; Sylwestrowicz, H. D. and Mayer, R. L., in Applied Microbiology 9:538-541 (1961), using the ratio determined by the formula:
Qa/QA+Qb/QB=Synergy Index (“SI”)
wherein: QA=concentration of compound A (first component) in percent, acting alone, which produced an end point (MBC of Compound A). Qa =concentration of compound A in percent, in the mixture, which produced an end point. QB=concentration of compound B (second component) in percent, acting alone, which produced an end point (MBC of Compound B). Qb=concentration of compound B in percent, in the mixture, which produced an end point.
When the sum of Qa/QA and Qb/QB is greater than one, antagonism is indicated. […] The lower the SI, the greater is the synergy shown by that particular mixture. The minimum biocidal concentration (MBC) of a microbicide is the lowest concentration tested under a specific set of conditions that provides complete kill of the tested microorganisms.
Synergy tests were-conducted using standard microtiter plate assays with, phosphate buffer containing 35% dipropylene glycol (DPG). In this method, a wide range of combinations of chemicals was tested by conducting high resolution MBC assays of Component (A) in the presence of various concentrations of Component (B). High resolution MBCs were determined by adding varying amounts of microbicide to one column of a microtiter plate and doing subsequent ten-fold dilutions using an automated liquid handling system to obtain a series of closely spaced endpoints. The MBC plate was inoculated one column at a time with the test microorganism. An aliquot of the inoculated well was transferred at 15 seconds to a plate containing a neutralizing agent (D/E Neutralizing Broth), mixed and held for 5 minutes before being transferred to a growth plate containing trypticase soy broth (TSB). The TSB plate was incubated at 37° C. and read for the presence/absence of growth at 24 hours. The lowest level tested that provided complete kill (as evidenced by no growth in the microtitre plate) of the test organisms in 15 seconds is the minimum biocidal concentration (MBC).
The synergy of the combinations of the present invention was determined against a bacterium, Escherichia coli (E. coli—ATCC #10536), at a concentration of approximately 1×10^8 bacteria per mL. This microorganism is representative of natural contaminants in many consumer and industrial applications.

[4] = system: Escherichia coli (E. coli—ATCC #10536); test: Automated assessment of efficacy in model surfactant base (2.85% sodium cocoyl glycinate + 1.85% sodium lauroamphoacetate, pH 10), 15 seconds exposure, OD450/OD590 readout; conditions: for MBC: Escherichia coli, ATCC10536, 15 s, in 2.85% sodium cocoyl glycinate + 1.85% sodium lauroamphoacetate solution at pH 10, E. coli, read-out: MBC (% w/v); for No. of replicates showing growth (out of 4) / Δ OD 450 nm = OD450 (time = 16 hours) - OD450 (time zero), Mean / Δ OD 590 nm OD590 (time = 16 hours) - OD590 (time zero), Mean: model surfactant solution
Experimental: Solutions were prepared such that the concentrations of the surfactant components and test actives were 1.1×x the final desired concentration in order to allow for dilution with the bacterial inoculum in the test. The solutions were manually adjusted to pH 10.0 by drop wise addition of sodium hydroxide solution, as measured with a phi meter at ambient temperature.
Tests were conducted using standard microtiter plate assays using an automated liquid handling system, 270 μl of the surfactant test solution was pipetted into each well of the microtitre plate and 30 μl of the bacterial suspension was then added. After exactly 15 seconds of bacterial exposure, a 30 μl volume of bacterial cells was withdrawn and transferred to 270 μl of D/E quench solution. After 5 minutes in the D/E quench, the optical density (OD) was measured for each plate in turn at two specific wavelengths (450 nm and 590 nm). These provide a dual check of antimicrobial activity, as the OD450 reading is specific for the yellow colour of D/E quench when bacterial growth is observed, whereas OD590 is specific for the initial purple colour of the D/E quench which is retained if no bacterial growth is observed. After the time zero OD measurements, plates were then incubated at 37° C. overnight (16 hours) before repeating the OD measurements. Delta OD values were calculated by subtracting […] the initial value at time zero. Bacterial growth is observed as an increase in OD450 and a decrease in ΔOD590. To identify antibacterially efficacious systems (those preventing appreciable bacterial growth after incubation), the following threshold changes in OD readings have been adopted: if (1), OD450 increases by less than 0.2 absorbance unit on incubation and (2). OD590 decreases by less than 0.35 unit on incubation. Conversely, where OD450 increases by more than 0.2 AU and OD590 decreases by more than 0.35 unit after incubation, corresponding to a colour shift from purple to yellow, the test system allows bacterial growth and is not deemed efficacious. Four replicate measurements in the same plate have been made for each test system. The number of replicate wells showing either bacterial growth or no growth is also readily assessed by eye by following the colour change.
Dose responses for individual components and binary mixtures of actives at a used concentration ratio were generated by sequential dilution of liquors with further surfactant solution to obtain a series of endpoints.
In some selected cases, the combinations were also tested at the weight ratio 1:1.

SMILES | Log reduction S. aureus ATCC 6538 ([1]; component alone at 0.1% w/v) | Log reduction E. coli ATCC 10536 ([2]; component alone at 0.1% w/v) | SI (Synergy Index = Qa/QA + Qb/QB) [3] | Qb: MBC of the second component (B) acting alone (QB) ([3]; complete kill in 15 seconds) | MBC [4] | No. of replicates showing growth (out of 4) ([4]; component alone at 0.2% w/v) | Δ OD 450 nm = OD450 (time = 16 hours) - OD450 (time zero), Mean ([4]; component alone at 0.2% w/v) | Δ OD 590 nm OD590 (time = 16 hours) - OD590 (time zero), Mean ([4]; component alone at 0.2% w/v) | No. of replicates showing growth (out of 4) ([4]; component alone at 0.5% w/v) | Δ OD 450 nm = OD450 (time = 16 hours) - OD450 (time zero), Mean ([4]; component alone at 0.5% w/v) | Δ OD 590 nm OD590 (time = 16 hours) - OD590 (time zero), Mean ([4]; component alone at 0.5% w/v) | No. of replicates showing growth (out of 4) ([4]; component alone at 0.125% w/v) | Δ OD 450 nm = OD450 (time = 16 hours) - OD450 (time zero), Mean ([4]; component alone at 0.125% w/v) | Δ OD 590 nm OD590 (time = 16 hours) - OD590 (time zero), Mean ([4]; component alone at 0.125% w/v) | No. of replicates showing growth (out of 4) ([4]; component alone at […] w/v) | other results
CC=Cc1ccccc1O [2-propenylphenol] | 1.92 | 1.86 |  |  |  |  |  |  |  |  |  |  |  |  |  | Log reduction S. aureus ATCC 6538 ([1]; component alone at 0.05% w/v): −0.18; Log reduction E. coli ATCC 10536 ([2]; component alone at 0.05% w/v): 1.27
CC(C)=CCC/C(C)=C\CO [cis-3,7-dimethyl-2,6-octadien-1-ol] |  |  | 1.00 | 0.25 weight % and 0.3 weight % and 0.5 weight % | > 5000 µg/mL | 4 out of 4 | −0.53 | 0.60 | 2 out of 4 | −0.14 | 0.40 |  |  |  |  | No. of replicates showing growth (out of 4) ([4]; component alone at 0.3% w/v): 4 out of 4; Δ OD 450 nm = OD450 (time = 16 hours) - OD450 (time zero), Mean ([4]; component alone at 0.3% w/v): −0.51; Δ OD 590 nm OD590 (time = 16 hours) - OD590 (time zero), Mean ([4]; component alone at 0.3% w/v): 0.61; No. of replicates showing growth (out of 4) ([4]; component alone at 0.4% w/v): 4 out of 4; Δ OD 450 nm = OD450 (time = 16 hours) - OD450 (time zero), Mean ([4]; component alone at 0.4% w/v): −0.48; Δ OD 590 nm OD590 (time = 16 hours) - OD590 (time zero), Mean ([4]; component alone at 0.4% w/v): 0.62
CCCc1cccc(O)c1 [3-n-propylphenol] |  |  | 1.00 |  | > 2000 µg/mL | 4 out of 4 | −0.57 | 0.56 |  |  |  | 4 out of 4 | −0.59 | 0.57 | 4 out of 4 | Qa: MBC of the first component (A) acting alone (QA) ([3]; component alone (Qb = 0), complete kill in 15 seconds): 0.5 weight %
C=CC(C)(O)CCC=C(C)C (racemic) [3,7-dimethylocta-1,6-dien-3-ol] | −0.13 | 0.06 | 1.00 | 0.5 weight % | > 5000 µg/mL | 4 out of 4 | −0.53 | 0.60 | 3 out of 4 | −0.30 | 0.50 |  |  |  | 4 out of 4 | 
CCCc1ccc(O)cc1 [4-propylphenol] |  |  | 1.00 |  | > 2000 µg/mL | 4 out of 4 | −1.49 | 0.43 |  |  |  | 4 out of 4 | −1.56 | 0.37 | 4 out of 4 | 
